# Experimental data taken from publication PMC7413254 (Nature Communications, 2020).
# Where “and” joins values, the source holds several entries; their conditions need not be identical. Equal entries are not always repeated. Where two headings read alike, the source gives them in different places.
# How the values were obtained:
# non-expressing oocytes [1] = assay: cells; format: cell-based, Xenopus laevis; settings: for inhibition at 500 µM / inhibition at 1000 µM / inhibition at 2000 µM: Xenopus laevis, Oocyte
# In short: (§1)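 PfCRT-expressing and control oocytes: ND96 pH 5.5 → 1.5 h at 27.5 °C → ice-cold ND96 wash → 10% SDS lysis → scintillation count.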
# PfCRT^3D7 [2] = target: T1, PfCRT^3D7 (Plasmodium falciparum, UniProt Q8IBZ9); assay: cell-based; format: cell-based
# In short: as §1
# PfCRT^Dd2 = PfCRT^Dd2 (Plasmodium falciparum, UniProt Q9N623, A220S/I356T/K76T/M74I/N326S/N75E/Q271E/R371I); assay: [3H]CQ uptake into Xenopus oocytes, cis-inhibition by unlabelled solute; format: cell-based; settings: for PfCRT-mediated [3H]CQ transport, cis-inhibition (% PfCRTDd2 control): PfCRTDd2 oocytes, background [3H]CQ accumulation subtracted, normalised to oocyte type control; for Uptake of [3H]CQ (% PfCRTDd2 control), cis-inhibition, PfCRTDd2: total [3H]CQ transport, mean ± SEM
# In short: as §1
# PfCRT^Ecu1110 = PfCRT^Ecu1110 (Plasmodium falciparum, UniProt Q9N623, A220S/I356L/K76T/N326D); assay: as above; format: cell-based; settings: for Uptake of [3H]CQ (% PfCRTEcu1110 control), cis-inhibition / Uptake of [3H]CQ (% PfCRTDd2 control), cis-inhibition, PfCRTEcu1110: total [3H]CQ transport; for Uptake of [3H]CQ (% PfCRTEcu1110 control), cis-inhibition: normalised to the oocyte type control; for [3H]CQ transport (% PfCRTEcu1110 control), cis-inhibition, PfCRTEcu1110: PfCRT-mediated component (background subtracted), sheet title says normalised to PfCRTDd2 control; for [3H]CQ transport (% PfCRTEcu1110 control), cis-inhibition, PfCRTEcu1110 / Uptake of [3H]CQ (% PfCRTDd2 control), cis-inhibition, PfCRTEcu1110: mean ± SEM
# In short: as §1
# non-expressing oocytes [3] = format: cell-based, Xenopus laevis; settings: SEM
# In short: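 Oocytes (ten per treatment, ≥4 independent frogs/days) were preloaded by injecting VF-6 in 25 nL ND96 at pH 5.0, 5.5, 6.0 or 7.0, or Na^+-free choline buffer, then uptake run 1.5 h, 27.5 °C, ND96 pH 5.5 by default. Internal concentrations assumed ~400 nL oocyte volume.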
# PfNT1 = target: T2, PfNT1 (Plasmodium falciparum, UniProt Q8IDM6); assay: cell-based; format: cell-based; settings: SEM
# T2 construct: expressed in transfected cells; host or cells: Xenopus laevis oocytes (stage V-VI), cRNA-injected
# In short: (§2)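 Transport measured in Xenopus oocytes expressing the transporters, 1.5 h at 27.5 °C in ND96 pH 5.5 unless noted. For trans-stimulation, VF-6 injected in 25 nL ND96 at pH 5.0–7.0 or Na^+-free (choline) buffer; intracellular levels based on ~400 nL oocyte volume. Ten oocytes per treatment, ≥4 experiments.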
# PfCRT [4] = assay: Influx of VF-6 via PfCRT into the oocyte, solutes tested as potential co-substrates; format: cell-based, Plasmodium falciparum; set-up: key: X: Compounds that have been tested as potential co-substrates but are not required for influx of VF-6 via PfCRT into the oocyte; settings: X marks the solute
# PfCRT [5] = assay: Test of solutes as potential co-substrates for influx of VF-6 via PfCRT into the oocyte; format: cell-based, Plasmodium falciparum; set-up: key: X: Compounds that have been tested as potential co-substrates but are not required for influx of VF-6 via PfCRT into the oocyte; settings: X = tested
# PfCRT [6] = assay: Potential co-substrates tested for influx of VF-6 via PfCRT into the oocyte; format: cell-based, Plasmodium falciparum; set-up: key: X: Compounds that have been tested as potential co-substrates but are not required for influx of VF-6 via PfCRT into the oocyte
# PfCRT^3D7 [7] = target: T1, PfCRT^3D7; assay: cell-based; format: cell-based; settings: SEM
# In short: as §2
# [8] = read-out: Uptake of [3H]CQ (% PfCRTDd2 control), cis-inhibition, non-expressing oocytes, SEM
# [9] = read-out: Uptake of [3H]CQ (% non-expressing oocyte control), cis-inhibition
# [10] = read-out: Uptake of [3H]CQ (% PfCRTDd2 control), cis-inhibition, PfCRT3D7, SEM
# [11] = read-out: PfCRT-mediated [3H]CQ transport, cis-inhibition (% PfCRTDd2 control)
# [12] = read-out: PfCRT-mediated [3H]CQ transport, cis-inhibition (% PfCRTEcu1110 control)
# [13] = read-out: Uptake of [3H]CQ (% PfCRTDd2 control), cis-inhibition, PfCRTEcu1110, SEM
# [14] = read-out: Uptake of [3H]CQ (% PfCRTEcu1110 control), cis-inhibition
# [15] = read-out: [3H]CQ transport (% PfCRTEcu1110 control), cis-inhibition, PfCRTEcu1110, SEM
# T1 sequence (Q8IBZ9 59-398): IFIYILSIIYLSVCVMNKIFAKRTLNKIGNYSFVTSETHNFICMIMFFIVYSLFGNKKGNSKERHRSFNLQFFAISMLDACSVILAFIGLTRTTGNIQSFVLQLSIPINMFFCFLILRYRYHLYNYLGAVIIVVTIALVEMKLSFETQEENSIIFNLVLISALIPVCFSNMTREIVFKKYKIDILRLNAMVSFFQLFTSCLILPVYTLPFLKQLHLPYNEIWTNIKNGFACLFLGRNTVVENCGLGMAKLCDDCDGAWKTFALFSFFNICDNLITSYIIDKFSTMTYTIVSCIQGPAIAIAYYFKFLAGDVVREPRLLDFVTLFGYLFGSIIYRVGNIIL
# Chain of PfCRT^Dd2 (Q9N623 whole entry A220S/I356T/K76T/M74I/N326S/N75E/Q271E/R371I): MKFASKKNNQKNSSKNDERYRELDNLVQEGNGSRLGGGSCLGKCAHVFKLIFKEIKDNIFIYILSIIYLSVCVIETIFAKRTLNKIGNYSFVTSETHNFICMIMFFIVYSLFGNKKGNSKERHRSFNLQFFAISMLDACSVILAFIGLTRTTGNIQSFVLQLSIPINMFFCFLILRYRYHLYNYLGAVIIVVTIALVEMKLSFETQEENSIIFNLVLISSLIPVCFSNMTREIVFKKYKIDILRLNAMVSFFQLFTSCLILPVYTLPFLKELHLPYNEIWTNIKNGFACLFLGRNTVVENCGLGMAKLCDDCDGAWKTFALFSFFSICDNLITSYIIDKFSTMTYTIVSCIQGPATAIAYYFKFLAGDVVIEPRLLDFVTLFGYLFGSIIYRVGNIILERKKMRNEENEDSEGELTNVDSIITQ
# Chain of PfCRT^Ecu1110 (Q9N623 whole entry A220S/I356L/K76T/N326D): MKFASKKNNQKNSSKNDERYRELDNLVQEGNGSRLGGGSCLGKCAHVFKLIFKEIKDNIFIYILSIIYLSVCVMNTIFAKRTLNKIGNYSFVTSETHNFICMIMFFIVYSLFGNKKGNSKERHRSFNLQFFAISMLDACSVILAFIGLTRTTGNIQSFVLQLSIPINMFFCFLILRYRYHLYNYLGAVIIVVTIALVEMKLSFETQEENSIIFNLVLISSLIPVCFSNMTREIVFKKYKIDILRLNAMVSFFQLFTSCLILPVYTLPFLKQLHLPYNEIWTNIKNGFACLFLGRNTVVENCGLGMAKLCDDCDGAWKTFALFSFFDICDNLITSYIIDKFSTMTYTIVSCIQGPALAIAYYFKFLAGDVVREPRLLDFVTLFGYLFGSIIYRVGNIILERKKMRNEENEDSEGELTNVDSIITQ
# T2 sequence (Q8IDM6 whole entry): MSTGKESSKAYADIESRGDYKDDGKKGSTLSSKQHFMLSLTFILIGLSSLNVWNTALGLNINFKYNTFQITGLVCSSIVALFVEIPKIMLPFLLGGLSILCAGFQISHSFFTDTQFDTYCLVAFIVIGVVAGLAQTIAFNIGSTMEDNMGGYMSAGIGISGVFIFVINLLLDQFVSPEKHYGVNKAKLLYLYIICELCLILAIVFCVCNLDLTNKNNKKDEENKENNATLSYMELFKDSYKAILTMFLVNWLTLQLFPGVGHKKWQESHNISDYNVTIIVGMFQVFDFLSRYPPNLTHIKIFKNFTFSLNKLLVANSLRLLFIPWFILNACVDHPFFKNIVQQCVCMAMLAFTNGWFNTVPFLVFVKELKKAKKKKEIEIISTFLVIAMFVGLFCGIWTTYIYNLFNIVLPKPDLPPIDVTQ
smiles,measurement,setting,value
NCC(=O)O [L-glycine],"Uptake of [3H]CQ (% non-expressing oocyte control), cis-inhibition",non-expressing oocytes [1],100 ± 4.6 % non-expressing oocyte control and 98 ± 7.4 % non-expressing oocyte control and 100 ± 3.5 % non-expressing oocyte control
same,"Uptake of [3H]CQ (% PfCRTDd2 control), cis-inhibition, non-expressing oocytes",non-expressing oocytes [1]; SEM,3.1 ± 0.09 % PfCRTDd2 control and 2.2 ± 0.03 % PfCRTDd2 control and 2.7 ± 0.03 % PfCRTDd2 control
same,"Uptake of [3H]CQ (% PfCRT3D7 control), cis-inhibition",PfCRT^3D7 [2],100 ± 3.6 % PfCRT3D7 control and 100 ± 4.8 % PfCRT3D7 control
same,"Uptake of [3H]CQ (% PfCRTDd2 control), cis-inhibition, PfCRT3D7",PfCRT^3D7 [2]; SEM,3.6 ± 0.07 % PfCRTDd2 control and 2.1 ± 0.01 % PfCRTDd2 control and 2.9 ± 0.04 % PfCRTDd2 control
same,"PfCRT-mediated [3H]CQ transport, cis-inhibition (% PfCRTDd2 control)",PfCRT^Dd2; [test solute] = 1 mM,94 ± 3.7 % PfCRTDd2 control
same,"PfCRT-mediated [3H]CQ transport, cis-inhibition (% PfCRTDd2 control)",PfCRT^Dd2; [test solute] = 2 mM,93 ± 3.1 % PfCRTDd2 control
same,"Uptake of [3H]CQ (% PfCRTDd2 control), cis-inhibition, PfCRTDd2","PfCRT^Dd2; [test solute] = 0.5 mM, SEM",97 ± 3.3 % PfCRTDd2 control
same,"Uptake of [3H]CQ (% PfCRTDd2 control), cis-inhibition, PfCRTDd2","PfCRT^Dd2; [test solute] = 2 mM, SEM",95 ± 3.6 % PfCRTDd2 control
same,"Uptake of [3H]CQ (% PfCRTEcu1110 control), cis-inhibition","PfCRT^Ecu1110; PfCRTEcu1110 oocytes, [test solute] = 0.5 mM",95 ± 4.2 % PfCRTEcu1110 control
same,"Uptake of [3H]CQ (% PfCRTEcu1110 control), cis-inhibition","PfCRT^Ecu1110; PfCRTEcu1110 oocytes, [test solute] = 1 mM",100 ± 3.2 % PfCRTEcu1110 control
same,"PfCRT-mediated [3H]CQ transport, cis-inhibition (% PfCRTEcu1110 control)","PfCRT^Ecu1110; [test solute] = 0.5 mM, PfCRTEcu1110 oocytes, background [3H]CQ accumulation subtracted, normalised to oocyte type control",94 ± 5.1 % PfCRTEcu1110 control
same,"[3H]CQ transport (% PfCRTEcu1110 control), cis-inhibition, PfCRTEcu1110","PfCRT^Ecu1110; [test solute] = 0.5 mM, SEM",28 ± 0.5 % PfCRTEcu1110 control
same,"[3H]CQ transport (% PfCRTEcu1110 control), cis-inhibition, PfCRTEcu1110","PfCRT^Ecu1110; [test solute] = 1 mM, SEM",30 ± 0.5 % PfCRTEcu1110 control
same,"[3H]CQ transport (% PfCRTEcu1110 control), cis-inhibition, PfCRTEcu1110","PfCRT^Ecu1110; [test solute] = 2 mM, SEM",29 ± 0.4 % PfCRTEcu1110 control
same,"Uptake of [3H]CQ (% PfCRTDd2 control), cis-inhibition, PfCRTEcu1110","PfCRT^Ecu1110; [test solute] = 0.5 mM, SEM",31 ± 1.5 % PfCRTDd2 control
same,"Uptake of [3H]CQ (% PfCRTDd2 control), cis-inhibition, PfCRTEcu1110","PfCRT^Ecu1110; [test solute] = 1 mM, SEM",33 ± 1.0 % PfCRTDd2 control
same,"Uptake of [3H]CQ (% PfCRTDd2 control), trans-stimulation, non-expressing oocytes",non-expressing oocytes [3],2.8 ± 0.05 % PfCRTDd2 control
same,"Uptake of [3H]CQ (% PfCRTDd2 control), trans-stimulation, PfNT1",PfNT1,2.9 ± 0.03 % PfCRTDd2 control
same,Compounds that have been tested as potential co-substrates but are not required for influx of VF-6 via PfCRT into the oocyte,PfCRT [4],X
same,Tested as potential co-substrate but not required for influx of VF-6 via PfCRT into the oocyte,PfCRT [5],X
same,Tested as potential co-substrate but not required for influx of VF-6 via PfCRT into the oocyte,PfCRT [6],X
O=C(O)[C@@H]1CCCN1 [L-proline],inhibition at 500 µM,non-expressing oocytes [1]; [8],2.8 ± 0.09%
same,inhibition at 1000 µM,non-expressing oocytes [1]; [8],3.1 ± 0.03%
same,inhibition at 2000 µM,non-expressing oocytes [1]; [8],3.4 ± 0.07%
same,inhibition at 500 µM,non-expressing oocytes [1]; [9],99 ± 3.3%
same,inhibition at 1000 µM,non-expressing oocytes [1]; [9],100 ± 3.5%
same,inhibition at 2000 µM,non-expressing oocytes [1]; [9],97 ± 5.3%
same,inhibition at 500 µM,"PfCRT^3D7 [2]; read-out: Uptake of [3H]CQ (% PfCRT3D7 control), cis-inhibition",99 ± 6.2%
same,inhibition at 500 µM,PfCRT^3D7 [2]; [10],2.3 ± 0.01%
same,inhibition at 2000 µM,PfCRT^3D7 [2]; [10],2.6 ± 0.04%
same,inhibition at 500 µM,PfCRT^Dd2; [11],95 ± 4.2%
same,inhibition at 1000 µM,PfCRT^Dd2; [11],96 ± 3.2%
same,inhibition at 1000 µM,"PfCRT^Dd2; read-out: Uptake of [3H]CQ (% PfCRTDd2 control), cis-inhibition, PfCRTDd2, SEM",98 ± 4.8%
same,inhibition at 500 µM,PfCRT^Ecu1110; [12],98 ± 4.6%
same,inhibition at 1000 µM,PfCRT^Ecu1110; [12],94 ± 3.6%
same,inhibition at 2000 µM,PfCRT^Ecu1110; [12],95 ± 2.6%
same,inhibition at 500 µM,PfCRT^Ecu1110; [13],33 ± 1.4%
same,inhibition at 1000 µM,PfCRT^Ecu1110; [13],31 ± 1.5%
same,inhibition at 2000 µM,PfCRT^Ecu1110; [13],32 ± 1.4%
same,inhibition at 500 µM,PfCRT^Ecu1110; [14],100 ± 7.7%
same,inhibition at 1000 µM,PfCRT^Ecu1110; [14],96 ± 8.1%
same,inhibition at 2000 µM,PfCRT^Ecu1110; [14],96 ± 4.3%
same,inhibition at 500 µM,PfCRT^Ecu1110; [15],30 ± 1.4%
same,inhibition at 1000 µM,PfCRT^Ecu1110; [15],28 ± 0.6%
same,inhibition at 2000 µM,PfCRT^Ecu1110; [15],29 ± 1.4%
same,"Uptake of [3H]CQ (% PfCRTDd2 control), trans-stimulation, non-expressing oocytes",non-expressing oocytes [3],2.6 ± 0.08 % PfCRTDd2 control
same,"[3H]CQ transport (% PfCRT3D7 control), trans-stimulation, PfCRT3D7",PfCRT^3D7 [7],0.2 ± 0.02 % PfCRT3D7 control
same,activity at 5000 µM,"PfNT1; […], read-out: Uptake of [3H]CQ (% PfCRTDd2 control), trans-stimulation, PfNT1",3.1 ± 0.08%
same,Compounds that have been tested as potential co-substrates but are not required for influx of VF-6 via PfCRT into the oocyte,PfCRT [4],X
same,Tested as potential co-substrate but not required for influx of VF-6 via PfCRT into the oocyte,PfCRT [5],X
same,Tested as potential co-substrate but not required for influx of VF-6 via PfCRT into the oocyte,PfCRT [6],X
